From PubChem BioAssay (NCI)
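Five concentrations, 48 hours, 96-well plates. Here, GI50 denotes the concentration required for 50% inhibition of growth. TGI: concentration producing complete growth inhibition.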

Legend:
Assay in all cases: inhibition of tumour cell growth, NCI panel, 48 h
[1] = test system: 786-0 renal
[2] = test system: A498 renal
[3] = test system: A549 NSCLC
[4] = test system: ACHN renal
[5] = test system: BT-549 breast
[6] = test system: CAKI-1 renal
[7] = test system: CCRF-CEM leukemia
[8] = test system: COLO 205 colon
[9] = test system: EKVX NSCLC
[10] = test system: HCC-2998 colon
[11] = test system: HCT-15 colon
[12] = test system: HOP-62 NSCLC
[13] = test system: HOP-92 NSCLC
[14] = test system: HS 578T breast
[15] = test system: IGROV1 ovarian
[16] = test system: K-562 leukemia
[17] = test system: KM12 colon
[18] = test system: LOX IMVI melanoma
[19] = test system: MALME-3M melanoma
[20] = test system: MCF7 breast
[21] = test system: MDA-MB-231 breast
[22] = test system: MDA-MB-435
[23] = test system: MDA-MB-468 breast
[24] = test system: NCI-H226 lung
[25] = test system: NCI-H23 lung

Cc1ccc(/C(CSc2nnc(-c3c[nH]c4ccccc34)n2-c2ccccc2)=N/O)cc1
GI50 [1]: 10 µM
TGI [1]: 31.4 µM
GI50 [2]: 24.8 µM
TGI [2]: 89.1 µM
GI50 [3]: 3.55 µM
TGI [3]: 69.7 µM
GI50 [4]: 1.79 µM
TGI [4]: 3.35 µM
GI50 [5]: 1.59 µM
TGI [5]: 3.03 µM
GI50 [6]: 1.63 µM
TGI [6]: 3.06 µM
GI50 [7]: 2.14 µM
TGI [7]: 4.98 µM
GI50 [8]: 3.77 µM
TGI [8]: 37.4 µM
GI50 [9]: 2.15 µM
TGI [9]: 5.58 µM
GI50 [10]: 2.09 µM
TGI [10]: 3.93 µM
GI50 [11]: 1.75 µM
TGI [11]: 3.34 µM
GI50 [12]: 1.69 µM
TGI [12]: 3.42 µM
GI50 [13]: 11.9 µM
TGI [13]: 37.4 µM
GI50 [14]: 2.07 µM
TGI [14]: 4.82 µM
GI50 [15]: 2.09 µM
TGI [15]: 4.35 µM
GI50 [16]: 2.01 µM
TGI [16]: 4.97 µM
GI50 [17]: 8.65 µM
TGI [17]: > 100 µM
GI50 [18]: 1.75 µM
TGI [18]: 3.17 µM
GI50 [19]: 2.26 µM
TGI [19]: 5.57 µM
GI50 [20]: 2.42 µM
TGI [20]: 7.01 µM
GI50 [21]: 1.77 µM
TGI [21]: 3.33 µM
GI50 [22]: 1.63 µM
TGI [22]: 3.05 µM
GI50 [23]: 1.5 µM
TGI [23]: 2.91 µM
GI50 [24]: 1.63 µM
TGI [24]: 3.36 µM
GI50 [25]: 10.1 µM
TGI [25]: 52.2 µM
